Results from publication PMC11455950, “Effects of SZV-2649, a new multiple ion channel inhibitor mexiletine analogue” (Scientific Reports, 2024).

Target: T1, hERG (Kv11.1) potassium channel (Homo sapiens, UniProt Q12809)
T1 construct: host or cells: HEK293
Assay: Automated planar patch-clamp, hERG current in HEK cells
Type: cell-based
Excerpt: Inhibition of the hERG channel, the pore forming α-subunit of the native IKr cardiac potassium channel, is expected to prolong repolarization both in the atria and in the ventricles. The GIRK channel is the pore forming α-subunit of the acetylcholine-activated potassium channel and plays an important role in atrial electrophysiology. Its inhibition can be expected to decrease the acetylcholine-activated potassium current (IKACh), a current that plays an important role in the pathogenesis of AF. Therefore, the effects of SZV-2649 on the hERG and GIRK ion channels were studied by the planar patch-clamp technique in mammalian HEK cell lines stably expressing these channels.
The currents conducted by the hERG and GIRK channels were measured by using planar patch-clamp technology[,[47],[68] in the whole-cell configuration with a four-channel medium-throughput fully automated patch-clamp platform (Patchliner Quattro, Nanion Technologies GmbH, Munich, Germany) with integrated temperature control. Data acquisition and online analysis were performed with an EPC-10 Quadro patch-clamp amplifier (HEKA Elektronik Dr Schulze GmbH, Lambrecht/Pfalz, Germany), using PatchMaster 2.65 software (HEKA Elektronik Dr. Schulze GmbH). The pipetting protocols were controlled by PatchControlHT 1.09.30 software (Nanion Technologies GmbH). […]

T1 sequence (Q12809 whole entry): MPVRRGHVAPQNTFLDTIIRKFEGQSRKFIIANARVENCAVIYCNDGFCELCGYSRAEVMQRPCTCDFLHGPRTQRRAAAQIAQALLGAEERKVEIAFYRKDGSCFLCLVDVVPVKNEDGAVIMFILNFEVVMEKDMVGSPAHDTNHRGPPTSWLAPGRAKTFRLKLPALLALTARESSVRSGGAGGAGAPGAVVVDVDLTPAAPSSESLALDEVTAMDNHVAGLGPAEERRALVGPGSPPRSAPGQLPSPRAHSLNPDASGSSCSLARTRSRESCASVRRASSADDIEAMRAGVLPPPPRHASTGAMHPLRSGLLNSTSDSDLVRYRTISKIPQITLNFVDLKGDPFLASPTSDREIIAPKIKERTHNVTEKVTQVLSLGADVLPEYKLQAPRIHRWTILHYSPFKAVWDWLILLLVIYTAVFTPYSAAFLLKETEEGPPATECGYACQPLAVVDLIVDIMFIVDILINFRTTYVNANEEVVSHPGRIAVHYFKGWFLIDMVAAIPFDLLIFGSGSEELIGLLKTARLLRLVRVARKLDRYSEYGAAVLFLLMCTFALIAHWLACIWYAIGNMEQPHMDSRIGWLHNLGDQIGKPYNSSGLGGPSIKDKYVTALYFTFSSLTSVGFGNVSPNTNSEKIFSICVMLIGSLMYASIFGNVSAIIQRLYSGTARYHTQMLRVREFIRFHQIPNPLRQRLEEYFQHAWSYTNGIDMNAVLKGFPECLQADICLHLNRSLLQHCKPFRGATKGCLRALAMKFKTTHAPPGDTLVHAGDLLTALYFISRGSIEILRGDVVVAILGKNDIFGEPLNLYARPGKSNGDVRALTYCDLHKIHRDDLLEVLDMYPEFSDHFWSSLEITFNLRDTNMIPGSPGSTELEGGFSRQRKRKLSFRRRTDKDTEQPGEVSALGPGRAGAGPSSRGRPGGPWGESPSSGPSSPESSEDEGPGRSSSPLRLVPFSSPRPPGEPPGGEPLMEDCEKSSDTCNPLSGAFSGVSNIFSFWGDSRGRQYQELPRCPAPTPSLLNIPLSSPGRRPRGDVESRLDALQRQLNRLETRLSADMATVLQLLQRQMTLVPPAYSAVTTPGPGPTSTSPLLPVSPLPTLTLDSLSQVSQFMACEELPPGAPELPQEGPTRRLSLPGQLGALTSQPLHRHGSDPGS

CC(N)COc1c(I)cc(C#N)cc1I.Cl (centres unmarked) [SZV-2649, 4-(2-aminopropoxy)-3,5-diiodobenzonitrile hydrochloride]
IC50 (HEK cells (abstract)): 342 nM | IC50 at 3 min (human, HEK293 cells stably expressing hERG (Kv11.1), pH 7.4, printed in picture of Fig. 2b, read-out: Effect on hERG: EC50): 342 nM
